Literature values, collected in patent publication US20080167327A1, “HYDRATES OF ERLOTINIB HYDROCHLORIDE” (priority 2006, published 2008).
Counter-ions that a name gives are not always drawn.

Columns and labels:
[1] = compared with Form A; disclosed in WO 01/34574
[2] = compared with Form B; disclosed in WO 2004/072049

Row | Compound | thermodynamic stability [1] | solubility [2]
1 | C#Cc1cccc(Nc2ncnc3cc(OCCOC)c(OCCOC)cc23)c1 [Form B, erlotinib hydrochloride] | thermodynamically more stable than Form A | –
2 | C#Cc1cccc(Nc2ncnc3cc(OCCOC)c(OCCOC)cc23)c1 [Form E, erlotinib hydrochloride] | – | higher solubility
